Measurements published in ChEMBL document CHEMBL3885881, “DrugMatrix”.

Species on record: Rattus norvegicus
Assay: DrugMatrix - Regimen: Daily Repeat
Assay type: toxicity, organism-based, Sprague-Dawley
Parameters: regimen Daily Repeat, gender Male, age 6-8 weeks
Conditions: in vivo, po, 10 mg/kg, route oral GAVAGE, dose level Low, vehicle .5 % CMC; for ABSOLUTE BASOPHIL / ABSOLUTE EOSINOPHIL / ABSOLUTE LYMPHOCYTE / ABSOLUTE MONOCYTE / ABSOLUTE SEGMENTED NEUTROPHIL / BASOPHIL / EOSINOPHIL / ERYTHROCYTE COUNT / HEMATOCRIT / HEMOGLOBIN / LEUKOCYTE COUNT / LYMPHOCYTE / MEAN CORPUSCULAR HEMOGLOBIN / MEAN CORPUSCULAR HEMOGLOBIN CONCENTRATION / MEAN CORPUSCULAR VOLUME / MONOCYTE / NEUTROPHIL / NUCLEATED RED BLOOD CELLS / PLATELET COUNT: tissue Blood; for ALANINE AMINOTRANSFERASE / ALBUMIN / ALKALINE PHOSPHATASE / ASPARTATE AMINOTRANSFERASE / BLOOD UREA NITROGEN / CARBON DIOXIDE / CHLORIDE / CHOLESTEROL / CREATINE PHOSPHOKINASE / CREATININE / GLUCOSE / LACTATE DEHYDROGENASE / LIPASE / PHOSPHORUS / POTASSIUM / SODIUM / TOTAL BILIRUBIN / TOTAL PROTEIN / URIC ACID: tissue Plasma

Fc1ccc(C(c2ccc(F)cc2)N2CCN(C/C=C/c3ccccc3)CC2)cc1 [FLUNARIZINE]
ABSOLUTE BASOPHIL (72 h, time 3 day): 0 CELLS/uL | ABSOLUTE EOSINOPHIL (72 h, time 3 day): 0 CELLS/uL | ABSOLUTE LYMPHOCYTE (72 h, time 3 day): 15150 CELLS/uL | ABSOLUTE MONOCYTE (72 h, time 3 day): 74.33 CELLS/uL | ABSOLUTE SEGMENTED NEUTROPHIL (72 h, time 3 day): 1309 CELLS/uL | BASOPHIL (72 h, time 3 day): 0% | EOSINOPHIL (72 h, time 3 day): 0% | ERYTHROCYTE COUNT (72 h, time 3 day): 6.09 x10E6/uL | HEMATOCRIT (72 h, time 3 day): 37.17% | HEMOGLOBIN (72 h, time 3 day): 14.73 G/DL | LEUKOCYTE COUNT (72 h, time 3 day): 16.53 x10E3/uL | LYMPHOCYTE (72 h, time 3 day): 91.33% | MEAN CORPUSCULAR HEMOGLOBIN (72 h, time 3 day): 24.2 pg | MEAN CORPUSCULAR HEMOGLOBIN CONCENTRATION (72 h, time 3 day): 39.67 G/DL | MEAN CORPUSCULAR VOLUME (72 h, time 3 day): 61.03 fL | MONOCYTE (72 h, time 3 day): 0.33% | NEUTROPHIL (72 h, time 3 day): 8.33% | NUCLEATED RED BLOOD CELLS (72 h, time 3 day): 0.33 /100WBC | PLATELET COUNT (72 h, time 3 day): 1291 x10E3/uL | ALANINE AMINOTRANSFERASE (72 h, time 3 day): 42.67 u/L | ALBUMIN (72 h, time 3 day): 4.7 G/DL | ALKALINE PHOSPHATASE (72 h, time 3 day): 347.33 u/L | ASPARTATE AMINOTRANSFERASE (72 h, time 3 day): 90.33 u/L | BLOOD UREA NITROGEN (72 h, time 3 day): 18 mg/dL | CARBON DIOXIDE (72 h, time 3 day): 20 mmol/L | CHLORIDE (72 h, time 3 day): 101 MEQ/L | CHOLESTEROL (72 h, time 3 day): 87.67 mg/dL | CREATINE PHOSPHOKINASE (72 h, time 3 day): 406.67 u/L | CREATININE (72 h, time 3 day): 0.23 mg/dL | GLUCOSE (72 h, time 3 day): 149 mg/dL | LACTATE DEHYDROGENASE (72 h, time 3 day): 371.67 u/L | LIPASE (72 h, time 3 day): 9 u/L | PHOSPHORUS (72 h, time 3 day): 12.27 mg/dL | POTASSIUM (72 h, time 3 day): 6.75 MEQ/L | SODIUM (72 h, time 3 day): 143.6 MEQ/L | TOTAL BILIRUBIN (72 h, time 3 day): 0.2 mg/dL | TOTAL PROTEIN (72 h, time 3 day): 6.57 G/DL | URIC ACID (72 h, time 3 day): 1.67 mg/dL | ABSOLUTE BASOPHIL (120 h, time 5 day): 0 CELLS/uL | ABSOLUTE EOSINOPHIL (120 h, time 5 day): 122 CELLS/uL | ABSOLUTE LYMPHOCYTE (120 h, time 5 day): 14703 CELLS/uL | ABSOLUTE MONOCYTE (120 h, time 5 day): 297.33 CELLS/uL | ABSOLUTE SEGMENTED NEUTROPHIL (120 h, time 5 day): 711 CELLS/uL | BASOPHIL (120 h, time 5 day): 0% | EOSINOPHIL (120 h, time 5 day): 0.67% | ERYTHROCYTE COUNT (120 h, time 5 day): 5.61 x10E6/uL | HEMATOCRIT (120 h, time 5 day): 36.03% | HEMOGLOBIN (120 h, time 5 day): 14.1 G/DL | LEUKOCYTE COUNT (120 h, time 5 day): 15.83 x10E3/uL | LYMPHOCYTE (120 h, time 5 day): 93% | MEAN CORPUSCULAR HEMOGLOBIN (120 h, time 5 day): 25.13 pg | MEAN CORPUSCULAR HEMOGLOBIN CONCENTRATION (120 h, time 5 day): 39.17 G/DL | MEAN CORPUSCULAR VOLUME (120 h, time 5 day): 64.2 fL | MONOCYTE (120 h, time 5 day): 2% | NEUTROPHIL (120 h, time 5 day): 4.33% | NUCLEATED RED BLOOD CELLS (120 h, time 5 day): 0 /100WBC | PLATELET COUNT (120 h, time 5 day): 1316 x10E3/uL | ALANINE AMINOTRANSFERASE (120 h, time 5 day): 52 u/L | ALBUMIN (120 h, time 5 day): 4.43 G/DL | ALKALINE PHOSPHATASE (120 h, time 5 day): 419 u/L | ASPARTATE AMINOTRANSFERASE (120 h, time 5 day): 84.33 u/L | BLOOD UREA NITROGEN (120 h, time 5 day): 14.67 mg/dL | CARBON DIOXIDE (120 h, time 5 day): 24 mmol/L | CHLORIDE (120 h, time 5 day): 103.67 MEQ/L | CHOLESTEROL (120 h, time 5 day): 74.33 mg/dL | CREATINE PHOSPHOKINASE (120 h, time 5 day): 286 u/L | CREATININE (120 h, time 5 day): 0.11 mg/dL | GLUCOSE (120 h, time 5 day): 150.67 mg/dL | LACTATE DEHYDROGENASE (120 h, time 5 day): 187.33 u/L | LIPASE (120 h, time 5 day): 8.67 u/L | PHOSPHORUS (120 h, time 5 day): 14.07 mg/dL | POTASSIUM (120 h, time 5 day): 6.62 MEQ/L | SODIUM (120 h, time 5 day): 147.27 MEQ/L | TOTAL BILIRUBIN (120 h, time 5 day): 0.2 mg/dL | TOTAL PROTEIN (120 h, time 5 day): 6.03 G/DL | URIC ACID (120 h, time 5 day): 1.67 mg/dL
